Laboratory results: patent US6579693B1, “Genetically engineered yeast strains” (Aventis Pharma S.A., priority 1995, dated 2003)

T1: P450 cytochrome 1A1 (Homo sapiens, UniProt P04798)
T1 construct: made in house; host or cells: Saccharomyces cerevisiae W303-derived strains, e.g. W(R, LHb5); microsomal fractions
T1 sequence (P04798 1-512): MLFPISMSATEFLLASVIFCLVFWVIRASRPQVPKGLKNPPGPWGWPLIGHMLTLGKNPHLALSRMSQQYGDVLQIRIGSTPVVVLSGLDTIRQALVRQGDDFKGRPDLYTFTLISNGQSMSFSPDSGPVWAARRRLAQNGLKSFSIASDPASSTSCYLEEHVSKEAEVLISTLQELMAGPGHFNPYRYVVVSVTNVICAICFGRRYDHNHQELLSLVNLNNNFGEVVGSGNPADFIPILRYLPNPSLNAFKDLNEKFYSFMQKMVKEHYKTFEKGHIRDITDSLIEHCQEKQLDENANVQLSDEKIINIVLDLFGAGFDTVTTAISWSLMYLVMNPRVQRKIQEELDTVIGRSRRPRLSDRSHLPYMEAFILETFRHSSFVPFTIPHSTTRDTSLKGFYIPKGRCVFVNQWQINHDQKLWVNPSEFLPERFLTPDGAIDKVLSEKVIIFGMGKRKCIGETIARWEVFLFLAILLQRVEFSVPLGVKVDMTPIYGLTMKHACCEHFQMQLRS

B1: rabbit cytochrome b5: purified rabbit cytochrome b5 added in excess to microsomal fractions (protein, UniProt P00169 2-134, looked up)
Cytochrome b5: AAQSDKDVKYYTLEEIKKHNHSKSTWLILHHKVYDLTKFLEEHPGGEEVLREQAGGDATENFEDVGHSTDARELSKTFIIGELHPDDRSKLSKPMETLITTVDSNSSWWTNWVIPAISALIVALMYRLYMADD

Assays:
W(Ghr, ΔB) clones = assay: resistance of yeast clones to ketoconazole; assay type: cell-based, S. cerevisiae; conditions: three W(Ghr, ΔB) clones, human reductase under GAPDH promoter
Method: The second selection: the resistance of the W(Ghr, ΔB) clones to ketoconazole was evaluated (Patent No. WO94/01564) in order to verify the activity of the human reductase expressed under the control of the GAPDH promoter. Three different clones are resistant to 20 mg of ketoconazole/ml, while the W(hR) strain, in which the human reductase is expressed under the control of the GAL10-CYC1 promoter, is only resistant to from 1 to 5 mg/ml under the same conditions.

P450 cytochrome 1A1 = target: T1, P450 cytochrome 1A1; assay: EROD activity test on microsomes (O-deethylation of 7-ethoxyresorufin); assay type: biochemical; conditions: microsomes of strain W(R, LHb5), rabbit cytochrome b5 added
Method: The P450 cytochrome 1A1 catalyses the O-deethylation of 7-ethoxyresorufin. The product of the reaction, i.e. resorufin (7-hydroxyphenoxazine), fluoresces at 586 nm after excitation at 530 nm. The quantity of resorufin formed per unit time corresponds to the rate of resorufin accumulation.
The incubation mixture comprises:
2 μl of a microsomal suspension (between 20 and 50 μg of microsomal protein) in 1 ml of pH 7.4 TE buffer containing 50 μM NADPH and 2.5 μM 7-ethoxyresorufin. In order to determin the effect of rabbit cytochrome b5 on catalytic efficacy, the microsomal fractions are subjected to prior incubation in the cold in the presence of an excess of purified cytochrome.

Molecule | ketoconazole concentration to which the clones are resistant (W(Ghr, ΔB) clones) [mg/mL] | turnover (P450 cytochrome 1A1)
CC(=O)N1CCN(c2ccc(OCC3COC(Cn4ccnc4)(c4ccc(Cl)cc4Cl)O3)cc2)CC1 (centres unmarked) [ketoconazole] | 20 | 
B1 |  | 27 pmol of metabolite/pmol of cytochrome P450 per min
